Like-named read-outs stand apart in the source and are kept apart here. Values belong to the compound of their own block, whether it stands above or below them.
What was measured:
[1] = tested on: ABCB1 (permeability glycoprotein (P-gp)) and ABCG2 (breast cancer resistance protein (BCRP)); parameters: method as in PMID 23135321; conditions: genetic knockout mice for ABCB1 and ABCG2; cited from earlier work
other human mGluRs = tested on: other human mGluRs; parameters: method as in PMID 23135321; conditions: cited from earlier work
human mGluR1s = biological target: human mGluR1s; parameters: method as in PMID 23135321; conditions: cited from earlier work
mGluR1 [2] = tested on: mGluR1; parameters: method as in PMID 23135321; conditions: PET; cited from earlier work
[3] = parameters: method as in earlier work; conditions: cited from earlier work; for Exposure SUV (0 to 20): AUC of plasma concentration vs. time, 0 to 20 min, data of previous studies; for fp: human plasma; for Brain peak SUV: human
[4] = Brain exposure comparison of five radioligands; type: in vivo, human
Protocol: Another complicating factor is low delivery to brain (i.e., low drug exposure), which may have cause low brain uptake. We compared five different radioligands from previous studies with regard to exposure to brain (Table 3) and measured the area under the curve of plasma concentration vs. time from 0 to 20 min. […] The effective exposure was thus named because only the free concentration of drug can cross the blood–brain barrier. ^11C-LY2428703 had the highest exposure value among the tracers tested. This high exposure was due to the slow wash-out of the tracer from the vascular compartment and to negligible metabolism in plasma, that is, parent radioligand represented 99% of plasma radioactivity even at the end of the 2-h scanning session.

mGluR1 [5] = biological target: mGluR1; parameters: method as in PMID 23135321; conditions: rats; read-out: in vitro affinity; cited from earlier work
[6] = cited from earlier work
[7] = fp × AUC0 to 20, comparators from data of refs 22, 19, 23, 24

Compound: COc1ccc(-c2nsc(NC(=O)[C@@H]3C[C@H]3C)c2C)cc1 [LY2428703]
- substrate for efflux transporters at the blood–brain barrier [1]: not a substrate
- affinity for other human mGluRs (other human mGluRs): no significant affinity
- Ki (human mGluR1s; females, read-out: Ki): 1.4 ± 0.4 nM
- Ki (human mGluR1s; males, read-out: Ki): 2.7 ± 0.5 nM
- signal in rat cerebellum (mGluR1 [2]): large specific and displaceable signal

- Effective exposure (E × fp) ([4]; in vivo): 8.0
Compound: [11CH3]Oc1ccc([C@@H]2CNC(=O)C2)cc1OC1CCCC1 [^11C-( R )-rolipram]
- Exposure SUV (0 to 20) [3]: 124.9 SUV
- fp [3]: 6.4%
- Brain peak SUV [3]: 2 to 2.5 SUV

Compound: COc1ccc(-c2nsc(NC(=O)[C@@H]3C[C@H]3C)c2C)cc1 [^11C-LY2428703]
- Ki (mGluR1 [5]): 0.6 nM
- Ki (human mGluR1s; humans, read-out: in vitro affinity): ~2 nM

Compound: [11CH3]NC(=O)[C@@H](Cc1ccccc1F)CN1CCC2(CC1)OCCc1cc(F)sc12 [^11C-NOP1A]
- Exposure SUV (0 to 20) [3]: 36.7 SUV
- fp [3]: 10.1%
- Brain peak SUV [3]: 5 to 7 SUV
- Effective exposure (E × fp) [4, 7]: 3.7

Compound: CC(C)Nc1cc(-c2csc(N(C)C(=O)c3ccc([18F])cc3)n2)ncn1 [^18F-FITM, reference compound]
- LogD [6]: 1.5

Compound: C[C@@H](N[C@@H]1C[C@H](c2cccc(OC[18F])c2)N(c2ccc(C(F)(F)F)cc2)C1=O)c1ccccc1 [^18F-FMPEP]
- Exposure SUV (0 to 20) [3]: 47.8 SUV
- fp [3]: 0.63%
- Brain peak SUV [3]: 3 to 4 SUV
- Effective exposure (E × fp) [4, 7]: 0.30

- Effective exposure (E × fp) ([4]; in vivo): 1.9
Compound: N#Cc1cc(F)cc(C#Cc2csc(C[18F])n2)c1 [^18F-SP203]
- Exposure SUV (0 to 20) [3]: 37.0 SUV
- fp [3]: 5.2%
- Brain peak SUV [3]: ~6 SUV
